One data set has as its system N. fowleri trophozoites. Briefly: Amoebicidal assay against N. fowleri trophozoites (Trypan blue). The format is cell-based, Naegleria fowleri. To be noted: for minimal effective concentration / EC50: Naegleria fowleri; for minimal effective concentration: read-out: Lowest concentration showing significant amoebicidal activity against N. fowleri; for EC50: read-out: Half maximal effective concentration (EC50), N. fowleri; for Amoebicidal activity against N. fowleri: summary in discussion, concentration not given. As to the method: (§1) Amoebicidal assays were performed as previously described. Briefly, 5 × 10^5 amoebae (N. fowleri and B. mandrillaris cells) were incubated with drugs and/or solvents in 24-well plates in RPMI-1640. Amoebae were incubated with RPMI-1640 for negative controls while DMSO and ethanol were used as solvent control. For the positive control, the anti-amoebic drug, 100 μM miltefosine was used. Plates were incubated at 37 °C and 5% CO2 for 24 h. Next, 0.1% Trypan blue was added to each well. […] The number of live cells (i.e., unstained) was counted using a haemocytometer to determine amoebicidal effects of various compounds. The data are representative of the mean ± standard error of several experiments performed in duplicate.
Figure 1 The amoebicidal activities of compounds against N. fowleri trophozoites. N. fowleri trophozoites were incubated with various concentrations of compounds for 24 h and trophozoites viability was determined using Trypan blue. Percentage amoebicidal activity was calculated by: [((RPMI cell count − cell count for sample)/RPMI cell count) × 100)]. The activities of solvents alone were negated from the activities of the compounds. The data is presented as the mean ± standard error (*: p < 0.05, **: p < 0.01, ***: p < 0.001 using student t-test; two tailed distribution).

The next data set concerns B. mandrillaris cysts. The data set is described as follows: Excystation assay, B. mandrillaris cysts. The format is cell-based. Particulars: Balamuthia mandrillaris, read-out: Inhibition of excystation of B. mandrillaris. On the procedure:
(§2) Briefly, 5 × 10^5 amoebae cysts (N. fowleri and B. mandrillaris cells) were incubated with 100 μM drugs and/or solvent in 24-well plates containing RPMI-1640 on HeLa monolayers at 37 °C and 5% CO2 until around 75% of the cysts in RPMI-1640 alone have excysted. The RPMI-1640 alone was used as a negative control while DMSO and ethanol were used as a solvent control and 100 μM miltefosine was used as positive control. Live trophozoites (amoebae that excysted) were then quantified by counting live (unstained) cells, after addition of 0.1% Trypan blue to each well, using a haemocytometer. Percentage inhibition is defined as: [(Number of trophozoites in untreated well − Number of trophozoites in treated well)/Number of trophozoites in untreated well)] × 100. The data are representative of the mean ± standard error of several independent experiments performed in duplicate.
(§3) Figure 3 (A) Inhibition of excystation of N. fowleri cysts. N. fowleri cysts were incubated with 100 μM drugs and/or solvent in 24-well plates containing RPMI-1640 on HeLa monolayers for 24 h and number of viable trophozoites were then enumerated. Percentage inhibition of excystation was calculated by: [((RPMI trophozoite cell count − trophozoite cell count for sample)/RPMI trophozoite cell count) × 100)]. The activities of solvents alone were negated from the activities of the compounds. The data is presented as the mean ± standard error (*: p ˂ 0.05, **: p < 0.01, ***: p < 0.001 using student t-test; two tailed distribution). (B) Inhibition of excystation of B. mandrillaris cysts. B. mandrillaris cysts were incubated with 100 μM drugs and/or solvent in 24-well plates containing RPMI-1640 on HeLa monolayers for 24 h and number of viable trophozoites were then enumerated. Percentage inhibition of excystation was calculated by: [((RPMI trophozoite cell count − trophozoite cell count for sample)/RPMI trophozoite cell count) × 100)]. The activities of solvents alone were negated from the activities of the compounds. The data is presented as the mean ± standard error (*: p ˂ 0.05, **: p < 0.01, ***: p < 0.001 using student t-test; two tailed distribution).

The test system of data set [1] is B. mandrillaris trophozoites. The data set is described as follows: Amoebicidal assay against B. mandrillaris trophozoites (Trypan blue). The format is cell-based, Balamuthia mandrillaris. Particulars: for EC50 / Concentration showing significant amoebicidal activity against B. mandrillaris: 24 h; for EC50: read-out: Half maximal effective concentration (EC50), B. mandrillaris; for Concentration showing significant amoebicidal activity against B. mandrillaris: compared to solvent control; for Amoebicidal activity against B. mandrillaris: summary in discussion, concentration not given. On the procedure:
as §1
Figure 2 The amoebicidal activities of compounds against B. mandrillaris trophozoites. B. mandrillaris trophozoites were incubated with various concentrations of compounds for 24 h and trophozoites viability was determined using Trypan blue. Percentage amoebicidal activity was calculated by: [((RPMI cell count − cell count for sample)/RPMI cell count) × 100)]. The activities of solvents alone were negated from the activities of the compounds. The data is presented as the mean ± standard error (*: p < 0.05, **: p < 0.01, ***: p < 0.001 using student t-test; two tailed distribution).

The subject of another data set is HaCaT cells. It is filed as cell-based, human. As to the method: Cytotoxic effects of the drugs were determined as previously described^21. Briefly, the cytotoxic activity of the drugs was investigated against HaCaT cells. […] The LDH assay protocol is based on an enzymatic reaction, i.e., LDH released from the cell oxidizes lactate to generate NADH, which then reacts with water-soluble tetrazolium salt (WST) to generate a yellow color. The intensity of the generated color correlates directly with the number of lyzed cells. Following this, 1% Triton X-100 was added to the positive control well and incubated the plate for 60 min at 37 °C. For negative control, human cells were grown in RPMI alone well. Then, an equal amount of cells supernatant (comprising LDH enzyme) from each well was combined with equal amount of LDH kit reagents and cytotoxicity was determined in proportion to LDH released from human cells using a spectrophotometer at 490 nm. The percentage LDH released was determined as follows: [(Absorbance of sample − Absorbance of control)/(Absorbance for total LDH release − Absorbance of control)] × 100 = percentage cytotoxicity.
Figure 4 Cytotoxic effects of compounds against human cells are depicted. Various concentrations of compounds were incubated with human cells for 24 h at 37 °C and 5% CO2. RPMI alone was used as negative control and triton X-100 was used as positive control. Data are presented as the mean ± standard error of 2 experiments conducted in duplicates.

The next data set has as its system N. fowleri cysts. Briefly: Excystation assay, N. fowleri cysts. The format is cell-based, Naegleria fowleri. To be noted: for inhibition at 100 µM: Naegleria fowleri, read-out: Inhibition of excystation of N. fowleri. As to the method: as §2, §3
Where [2] appears, read: compared to solvent control, p < 0.05, 24 h.
The mark [3] stands for this setting: trophozoites, 24 h, Trypan blue.
Where [4] appears, read: 100 μM, after negating effects of solvent alone.
[5] abbreviates: Balamuthia mandrillaris, trophozoites, Trypan blue.
The mark [6] stands for this setting: LDH release, 24 h, concentration not given.

Like-named read-outs stand apart in the source and are kept apart here. Bounds are passed on as bounds.

Turning to `O=C(O)c1c(Cl)ccc2cc(Cl)cnc12` [Quinclorac, 3,7-Dichloro-8-quinolinecarboxylic acid], the minimal effective concentration with N. fowleri trophozoites (setting [2]) is ≥ 25 µM. Moreover, the figures for the EC50 (with N. fowleri trophozoites (setting [3]); in data set [1] (setting [5])) were 102 µM and 297 µM, respectively. Besides, the inhibition at 100 µM in the data set with B. mandrillaris cysts (setting [4]) was 53%; in the data set with N. fowleri cysts (setting [4]), 30%. Also, the “Concentration showing significant amoebicidal activity against B. mandrillaris” value in data set [1] is 50 µM. Further, the “Cytotoxicity against HaCaT cells” value in the data set with HaCaT cells (setting [6]) was 6%.

With `N#Cc1c(Cl)cccc1Cl` [Dichlobenil (2,6-DNBT), 2,6-dichlorobenzonitrile], the EC50 stood at 24.2 µM in the data set on N. fowleri trophozoites (24 h) and 39.6 µM in data set [1] (Balamuthia mandrillaris). In the data set with N. fowleri trophozoites (24 h), the minimal effective concentration is ≥ 6.25 µM. The “Amoebicidal activity against N. fowleri” value in the data set with N. fowleri trophozoites is 69%. In addition, the inhibition at 100 µM in the data set with B. mandrillaris cysts and in the data set on N. fowleri cysts was 45% each time. Further, the “Concentration showing significant amoebicidal activity against B. mandrillaris” value in data set [1] amounted to 25 µM. Moreover, in data set [1], the “Amoebicidal activity against B. mandrillaris” value was 60%. The “Cytotoxicity against HaCaT cells” value with HaCaT cells (human, 24 h) amounted to 3%.

Take `CN1C(=O)[C@](O)(Cc2cccc(O)c2)N(C)C(=O)[C@@H]1Cc1c[nH]c2cccc([N+](=O)[O-])c12` [Thaxtomin A, (3R,6S)-3-hydroxy-3-[(3-hydroxyphenyl)methyl]-1,4-dimethyl-6-[(4-nitro-1H-indol-3-yl)methyl]piperazine-2,5-dione]: the EC50 was 94.7 µM in the data set with N. fowleri trophozoites (24 h) and 39 µM in data set [1] (Balamuthia mandrillaris). Also, in the data set on N. fowleri trophozoites (setting [2]), the “Lowest concentration showing significant amoebicidal activity against N. fowleri” value is “did not show anti-N. fowleri effects at any concentration tested”. For the same compound, the inhibition at 100 µM with B. mandrillaris cysts was < 10%; in the data set on N. fowleri cysts, 22%. Besides, the “Cytotoxicity against HaCaT cells” value with HaCaT cells (setting [6]) amounted to 4%.

As for `CN(C)C(=N)NC(=N)N` [Metformin, 1-carbamimidamido-N,N-dimethylmethanimidamide], the EC50 in the data set with N. fowleri trophozoites (24 h) worked out at 134 µM. The minimal effective concentration in the data set on N. fowleri trophozoites (setting [2]) is 12.5 µM. In addition, in the data set on N. fowleri cysts (setting [4]), the “Inhibition of excystation of N. fowleri” value is “did not inhibit excystation”.

Regarding `O=C(O)/C=C/c1ccccc1` [Trans-cinnamic acid, (E)-3-phenylprop-2-enoic acid], in the data set with N. fowleri trophozoites (setting [2]), the minimal effective concentration was ≥ 3.13 µM. The EC50 in the data set on N. fowleri trophozoites (setting [3]) is 9.4 µM. The inhibition at 100 µM was determined as 32% in the data set on B. mandrillaris cysts (setting [4]) and 59% in the data set with N. fowleri cysts (setting [4]). The “Cytotoxicity against HaCaT cells” value in the data set with HaCaT cells (setting [6]) was found to be 8%.

Turning to Cellulase, the “Lowest concentration showing significant amoebicidal activity against N. fowleri” value in the data set with N. fowleri trophozoites (setting [2]) is given as “did not show anti-N. fowleri effects at any concentration tested”. The “Concentration showing significant amoebicidal activity against B. mandrillaris” value in data set [1] is on record as 100 µM. Further, the EC50 in data set [1] (trophozoites, Trypan blue) was 106 µM. In addition, the “Cytotoxicity against HaCaT cells” value in the data set with HaCaT cells is recorded as “did not exhibit any cytotoxicity”. In addition, the “Inhibition of excystation of N. fowleri” value in the data set with N. fowleri cysts (setting [4]) came out at 39%.

Regarding `CCNc1nc(Cl)nc(NC(C)(C)C)n1` [Terbuthylazine, 2-N-tert-butyl-6-chloro-4-N-ethyl-1,3,5-triazine-2,4-diamine], the minimal effective concentration in the data set with N. fowleri trophozoites (setting [2]) was ≥ 3.13 µM. Also, the EC50 amounted to 7.5 µM in the data set on N. fowleri trophozoites (setting [3]) and 62.5 µM in data set [1] (setting [5]). For the same compound, in the data set on N. fowleri trophozoites, the “Amoebicidal activity against N. fowleri” value was 63%. In addition, the figures for the inhibition at 100 µM in the data set on B. mandrillaris cysts (setting [4]) and in the data set on N. fowleri cysts (setting [4]) were < 10% and 29%, respectively. Also, in data set [1], the “Amoebicidal activity against B. mandrillaris” value is 61%. In addition, the “Cytotoxicity against HaCaT cells” value in the data set on HaCaT cells (setting [6]) turned out to be 2%.

As for `Cc1ccc2c(c1)C(Nc1nc(N)nc(C(C)F)n1)C(C)C2` (stereo not shown) [Indaziflam, N-(2,3-dihydro-2,6-dimethyl-1H-inden-1-yl)-6-(1-fluoroethyl)-1,3,5-triazine-2,4-diamine], in the data set with N. fowleri trophozoites (24 h), the EC50 was determined as 53.7 µM and the minimal effective concentration came out at 12.5 µM. In the data set on N. fowleri trophozoites, the “Amoebicidal activity against N. fowleri” value is recorded as 62%. In addition, in the data set on B. mandrillaris cysts, the inhibition at 100 µM amounted to 52%. In data set [1] (Balamuthia mandrillaris), the EC50 worked out at 99.8 µM. Further, in data set [1], the “Concentration showing significant amoebicidal activity against B. mandrillaris” value amounted to 50 µM and the “Amoebicidal activity against B. mandrillaris” value was 52%. Also, the “Cytotoxicity against HaCaT cells” value in the data set on HaCaT cells (setting [6]) is reported as 4%. Also, the inhibition at 100 µM in the data set on N. fowleri cysts was found to be 68%.

What is called inhibition is the relative decrease from the control value, in per cent.
